One may read the Kd as the free concentration of one partner at which half of the binding sites on the other are occupied at equilibrium, for simple one-to-one binding.

The values below come from US7223795B2, “Modified peptide derivatives and methods of use thereof” (Cyclacel Limited, priority 2000, dated 2007).

For one test, the target named is Cyclophilin A (Homo sapiens, UniProt P62937). In words: Fluorescence assay: interaction with Cyclophilin A (dissociation constant). It counts as binding. Particulars: 20° C., read-out: Kd determined by fluorescence assay. As for the experimental part:
In each case, the binding constant was measured by means of a fluorescence assay, for example as disclosed by Husi, H. and Zurini, M. G. M. [Comparative binding studies of cyclophilins to cyclosporin-A and derivatives by fluorescence measurements, Analytical Biochemistry, 1994, 222, 251–255].
Fluorescence Assay: Interaction with Cyclophilin A
The dissociation constant (Kd) for a number of ligands has been was obtained by fluorescence measurements. Cyclophilin A has only one tryptophan, located about 8 Å from the centre of the active site making a hydrogen bond to the inhibitor cyclosporin when bound. After each addition of ligand, the portion of the protein bound is proportional to the fractional fluorescence change. Measurements were carried out using a Perkin Elmer LS50B fluorescence spectrophotometer. The experiments took place at 20° C. Constant temperature was maintained within the cuvette by a temperature control. The protein solution was equilibrated until the signal was stable. A 1.4 ml fluorescence cuvette was used (Hellma 6140F). The excitation wavelength was 280 nm and the emission wavelength was varied from 330 to 345 nm according to protein and ligand. Emission and excitation slits varied from 2.5 to 10 nm, determined by experimental parameters.
At this point the concentration of the bound ligand equals the free protein. For each ligand concentration one fluorescence value was measured, and at the same concentrations a reference emission value was taken. The difference between the two values was calculated and a new corrected value was used to determine the Kd graphically.
Cyp-A solutions of […] in 50 mMTris, 100 mM NaCl, pH=7.4 were used. Protein concentration varied according to the ligand under test.

The target of the next test is Cyp-D Wild-type (Homo sapiens, UniProt P30405). The experiment in a line: Fluorescence titration: interaction with Cyclophilin D. It counts as binding. As for the experimental part: Fluorescence Assay: Interaction with Cyclophilin D
Further fluorescence titration studies were undertaken to investigate the interaction of selected compounds of the invention with cyclophilin D. The assay was carried out in accordance with the method described in Maurice R. Eftink and Camillo A. Ghiron, [Fluorescence Quenching Studies with Proteins, Analytical Biochemistry 114, 199–227 (1981)].

The target of a further test is cyclophilin D (Homo sapiens, UniProt P30405). The experiment in a line: Rotamase activity (method of Kofron et al). It is filed as biochemical. As for the experimental part: PPIase activity is assessed with the α-chymotrypsin-coupled enzymatic assay [Determination of kinetic constants for peptidyl cis-trans isomerase by an improved spectrophotometric assay (1 991); Kofron J L, Kuzmic P, Kishore V, Colon-Bonilla E and Rich D., Biochemistry 30, 6127–6134]. α-Chymotrypsin selectively hydrolyses the C-terminal p-nitroanilide bond of the substrate in the trans X-Pro conformer only. This hydrolysis releases a chromophore 4-nitroaniline, the accumulation of which is recorded by measuring the absorbance at 400 nm as a function of time. […] Substrate (stock solution of 100 mM) was dissolved in LiCl/TFE. The experiment took place at 4° C. Constant temperature was maintained within the cuvette by a Peltier (PTP-1) temperature control unit. A mini magnetic stirring system (telemoduel from Variomag)) was used for mixing the solution in the cuvette after the addition of the substrate. A Perkin Elmer UV/VIS Lambda 20 spectrophotometer was used. […]

Another test deals with Cyp-A (Homo sapiens, UniProt P62937). The experiment in a line: PPIase activity, α-chymotrypsin-coupled enzymatic assay. It counts as biochemical. As to conditions: 4° C., read-out: Kd determined by PPIase assay. On the procedure:
PPIase activity is assessed with the α-chymotrypsin-coupled enzymatic assay [Determination of kinetic constants for peptidyl cis-trans isomerase by an improved spectrophotometric assay (1 991); Kofron J L, Kuzmic P, Kishore V, Colon-Bonilla E and Rich D., Biochemistry 30, 6127–6134]. α-Chymotrypsin selectively hydrolyses the C-terminal p-nitroanilide bond of the substrate in the trans X-Pro conformer only. This hydrolysis releases a chromophore 4-nitroaniline, the accumulation of which is recorded by measuring the absorbance at 400 nm as a function of time. […] Substrate (stock solution of 100 mM) was dissolved in LiCl/TFE. The experiment took place at 4° C. Constant temperature was maintained within the cuvette by a Peltier (PTP-1) temperature control unit. A mini magnetic stirring system (telemoduel from Variomag)) was used for mixing the solution in the cuvette after the addition of the substrate. A Perkin Elmer UV/VIS Lambda 20 spectrophotometer was used.
The following materials were used: • Substrate: […] (Bachem AG) (N-succinyl-Ala-Ala-Pro-Phe-pnitroanilide) • Proteins: Cyp-A solution was freshly prepared before the experiment from frozen stock solution, at the appropriate concentration by dilution in buffer 50 mM Hepes, 100 mM NaCl pH=8.0. α-chymotrypsin (Sigma)
In a typical experiment 90 μl of 2.5–30 nM cyclophilin was made up to 2520 μl with buffer A in a 3 ml glass cuvette. The cuvette then was preincubated for 30 min on ice. Immediately before the assay, 300 μl of chymotrypsin solution (50 mg/ml in 10 mM HCl) was added, followed by 90 μl of a 3.7 mM stock solution of Suc-Ala-Ala-Pro-PNA in LiCl (470 mM)/TFE. The reaction progress was monitored by the absorbance change at 400 nm that accompanies the hydrolysis of the amide bond and the release of 4-nitroaniline product.

Another test addresses cyclophilin (Homo sapiens, UniProt P62937). The experiment in a line: Binding studies, binding constant to cyclophilin.

Read-outs that look alike come from different tables or passages of the source.

Sequence of cyclophilin D (P30405 30-207): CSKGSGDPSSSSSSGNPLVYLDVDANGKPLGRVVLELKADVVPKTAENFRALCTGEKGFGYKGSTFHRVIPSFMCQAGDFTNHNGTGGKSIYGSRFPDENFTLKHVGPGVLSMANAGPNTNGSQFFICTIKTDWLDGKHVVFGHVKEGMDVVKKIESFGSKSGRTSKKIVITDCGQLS
Sequence of Cyp-D Wild-type (P30405 30-207): as above
Sequence of Cyp-A (P62937 whole entry): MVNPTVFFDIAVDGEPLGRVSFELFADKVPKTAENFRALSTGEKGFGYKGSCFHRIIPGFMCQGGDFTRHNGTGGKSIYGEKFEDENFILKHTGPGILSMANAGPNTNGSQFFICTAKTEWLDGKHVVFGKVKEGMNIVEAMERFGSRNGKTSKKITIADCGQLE
Sequence of Cyclophilin A (P62937 whole entry): as above
Sequence of cyclophilin (P62937 whole entry): as above

As for `CC(C)COC(=O)OC1=CC(=O)CC(C)(C)C1` [EM 3/48/2/1], the Kd on Cyclophilin A is 130 µM.

As to `CC(C)C(NC(=O)OCc1ccccc1)C(O)=C1C(=O)CC(C)(C)CC1=O` (stereo not drawn) [EM 3/11/1, 1-(4,4-dimethyl-2,6-dioxocyclohexylidene)-2-benzyloxycarbonylamino-3-methylbutanol], the Kd on Cyclophilin A was above 25000 µM; on Cyp-D Wild-type, 203 µM. The “Rotamase activity % Control” value was determined as 109 % Control on cyclophilin D (50 μM), 102.5 % Control on cyclophilin D (100 μM) and 61 % Control on cyclophilin D (200 μM).

As for `COC(=O)[C@H](Cc1ccccc1)NC(=C1C(=O)CC(C)(C)CC1=O)C(NC(=O)OCc1ccccc1)C(C)C` (stereo partly drawn) [EM 2/40, N-[1-(4,4-dimethyl-2,6-dioxocyclohexylidene)-2-benzyloxycarbonylamino-3-methylbutyl]phenylalanine methyl ester], the results for the Kd on Cyclophilin A and at Cyp-D Wild-type were above 25000 µM and 110 µM, respectively. Also, the results for the “Rotamase activity % Control” value at cyclophilin D (50 μM), on cyclophilin D (100 μM) and on cyclophilin D (200 μM) were 96 % Control, 100 % Control and 59 % Control, respectively.

Turning to `CC1(C)CC(=O)CC(=O)C1Cc1ccccc1` (stereo not drawn) [EM 5/11], the Kd on Cyp-D Wild-type stood at 170 µM. For the same compound, the “Rotamase activity % Control” value is given as 84 % Control at cyclophilin D (50 μM), 99 % Control at cyclophilin D (100 μM) and 71 % Control on cyclophilin D (200 μM).

Consider `CC(C)C[C@H](NC(=O)OCc1ccccc1)C(=O)OC1=CC(=O)CC(C)(C)C1` [EM 3/26/2/5, 3-(N-benzyloxycarbonyl-L-leucinyloxy)-5,5-dimethyl-2-cyclohexen-1-one], for which, on Cyp-D Wild-type, binding was put at a Kd of 116 µM. Moreover, the “Rotamase activity % Control” value on cyclophilin D (50 μM) stood at 79 % Control; at cyclophilin D (100 μM) it was 78 % Control; at cyclophilin D (200 μM), 52 % Control.

As for `CC(C)[C@H](NC(=O)OCc1ccccc1)C(=O)OC1=CC(=O)C(C)C(C)(C)C1` (stereo partly drawn) [EM 4/10/1], the Kd at Cyp-A worked out at 20 µM; at Cyp-D Wild-type it was 815 µM. The entries for the “Rotamase activity % Control” value on cyclophilin D (50 μM), at cyclophilin D (100 μM) and on cyclophilin D (200 μM) were 78 % Control, 84.5 % Control and 60 % Control, respectively.

Compound `CC(C)[C@H](NC(=O)OC(C)(C)C)C(=O)OC1=CC(=O)CC(C)(C)C1` [EM 3/29/1/1] yielded a Kd on Cyp-D Wild-type of 362 µM. Moreover, the “Rotamase activity % Control” value on cyclophilin D (50 μM) turned out to be 107 % Control; on cyclophilin D (100 μM), 77.5 % Control; at cyclophilin D (200 μM), 50 % Control.

Regarding `CC1(C)CC(=O)C=C(OC(=O)[C@H](Cc2ccccc2)NC(=O)OCc2ccccc2)C1` [EM 3/26/1/2], the Kd on Cyclophilin A was above 25000 µM; at Cyp-D Wild-type it was 154 µM. Also, the results for the “Rotamase activity % Control” value at cyclophilin D (50 μM), at cyclophilin D (100 μM) and at cyclophilin D (200 μM) were 83 % Control, 72.5 % Control and 33 % Control, respectively.

As to `CC(C)[C@H](NC(=O)OCc1ccccc1)C(=O)OC1=CC(=O)C(C)(C)C(C)(C)C1` [EM 4/21/1], the Kd on Cyclophilin A was 68 µM.

For `CC1(C)CC(=O)C=C(N)C1` [EM 4/12/2], binding on Cyp-D Wild-type was put at a Kd of 107 µM. Further, the “Rotamase activity % Control” value on cyclophilin D (50 μM) was determined as 104 % Control; at cyclophilin D (100 μM), 106.5 % Control; on cyclophilin D (200 μM), 98 % Control.

For the compound `CC1(C)CC(=O)CC(=O)C1C/C=C/c1ccccc1` (stereo not drawn) [EM 5/12/3], the Kd at Cyclophilin A came to 85 µM.

For the compound `COC(=O)[C@@H](NC(=O)OCc1ccccc1)C(C)C` [EM 3/27], the results for the “Rotamase activity % Control” value at cyclophilin D (50 μM), on cyclophilin D (100 μM) and at cyclophilin D (200 μM) were 111 % Control, 96 % Control and 60 % Control, respectively.

With `CC1C(=O)CC(=O)CC1(C)C` (racemic) [EM 4/33/1], the Kd on Cyp-A worked out at 134 µM.

In the case of `COC(=O)N[C@H](C(=O)OC1=CC(=O)CC(C)(C)C1)C(C)C` [EM 4/18/1], at Cyclophilin A, the Kd was found to be 70 µM.

Turning to `CC(C)[C@H](NC(=O)OCc1ccccc1)C(=O)OC1=CC(=O)CC(C)(C)C1` [EM 2/34, 3-(N-benzyloxycarbonyl-L-valinyloxy)-5,5-dimethyl-2-cyclohexen-1-one], the Kd on Cyp-A is 23 µM; at Cyp-D Wild-type it was 347 µM; at cyclophilin, around 1 µM. Further, the “Rotamase activity % Control” value is 81 % Control at cyclophilin D (50 μM), 80 % Control on cyclophilin D (100 μM) and 33 % Control at cyclophilin D (200 μM).

For the compound `CC1(C)CC(=O)CC(=O)C1` [dimedone, reference compound], the Kd at cyclophilin (read-out: binding constant (Kd) to cyclophilin, by way of comparison) is 22000 µM.

`COC(=O)[C@@H](NC1=CC(=O)CC(C)(C)C1)C(C)C` [EM 3/22/1]: the Kd at Cyclophilin A was above 25000 µM; at Cyp-D Wild-type, 103 µM. The “Rotamase activity % Control” value on cyclophilin D (50 μM) amounted to 110 % Control; on cyclophilin D (100 μM), 102 % Control; on cyclophilin D (200 μM), 63 % Control.

With `COC(=O)CC1C(=O)CC(=O)CC1(C)C` (stereo not drawn) [EM 4/35/1/1], on Cyclophilin A, the Kd worked out at 45 µM.
